Data set [1] in a line: Binding affinity to SDS detergent micelles assessed as reduction in blue shift at 10 uM by tryptophan fluorescence-based fluorometry.
Data set [2] concerns Erythrocyte. Kind of data set: Hemolytic activity in human RBC after 1 hr. The data set is classed as ADME, cell-based.
Data set [3] deals with Lipid bilayer. Kind of data set: Binding affinity to Escherichia coli large unilamellar vesicles assessed as reduction in blue shift at 10 uM by tryptophan fluorescence-based fluorometry.
The test system of data set [4] is Lipid bilayer. Kind of data set: Binding affinity to POPC liposome membranes assessed as reduction in blue shift at 10 uM by tryptophan fluorescence-based fluorometry.
In data set [5] the test system is Escherichia coli. The data set is described as follows: Antibacterial activity against Escherichia coli BL21 after 20 hrs by two fold serial dilution method. Type of data set: functional. The conditions noted are these: BL21, 20 h.
Data set [6] concerns Escherichia coli. Kind of data set: Time dependent inhibition of Escherichia coli BL21 at 2 uM. Type of data set: functional, organism-based.
Data set [7] can be described thus: Hemolytic activity in human RBC at 4 uM after 1 hr. Type of data set: ADME, cell-based, Erythrocyte. Particulars: red blood cells (erythrocytes), read-out: Activity.
Data set [8] can be described thus: Therapeutic index, ratio of MHC for human RBC to MIC for Escherichia coli BL21. Type of data set: toxicity. Particulars: read-out: TI.
The test system of data set [9] is Escherichia coli. Kind of data set: Growth inhibition of Escherichia coli BL21 at 2 uM after 2 hrs relative to 6K-F17. The data set is classed as functional. Particulars: for inhibition of growth at 2 µM: BL21, BL21, 2 h, read-out: GI.
Data set [10] concerns Escherichia coli. Kind of data set: Time dependent inhibition of Escherichia coli BL21 at 4 uM. The data set is classed as functional, organism-based.
Data set [11] concerns Escherichia coli. The data set is described as follows: Time dependent inhibition of Escherichia coli BL21 at 8 uM. The data set is classed as functional, organism-based.
In data set [12] the test system is Lipid bilayer. Kind of data set: Binding affinity to Escherichia coli large unilamellar vesicles assessed as change in spectral line shape by 31P solid-state NMR spectroscopic analysis.
Data set [13] relates to Lipid bilayer. The data set is described as follows: Binding affinity to POPC liposome membranes assessed as change in spectral lineshape by 31P solid-state NMR spectroscopic analysis.

In brackets after ≈: the same amount, converted by molar mass. Activity calls are given as the source filed them. No cut-off for these calls is given here. Bridge positions count the residues as written; N and C are the ends. Square brackets hold non-standard residues; d marks the D form. Peptide text beside a SMILES is read from it. S5 = C=CCCC[C@](C)(N)C(=O)O

For `C[C@H](NC(=O)[C@H](C)NC(=O)[C@H](Cc1ccccc1)NC(=O)[C@]1(C)CCC/C=C\CCC[C@](C)(NC(=O)[C@H](Cc2ccccc2)NC(=O)[C@H](C)NC(=O)[C@H](C)NC(=O)[C@H](CCCCN)NC(=O)[C@H](CCCCN)NC(=O)[C@H](CCCCN)NC(=O)[C@H](CCCCN)NC(=O)[C@H](CCCCN)NC(=O)[C@@H](N)CCCCN)C(=O)N[C@@H](C)C(=O)N[C@@H](Cc2c[nH]c3ccccc23)C(=O)N[C@@H](C)C(=O)N1)C(N)=O` (H-KKKKKKAAF[S5]AWA[S5]FAA-NH2; staple (Z) 10-14), the result in [1] was Active. Moreover, the MHC in data set [2] worked out at 3.8 µM. Moreover, the result in [3] and in data set [4] was inactive. In data set [5], the MIC was found to be 1 µM (≈ 1.94 µg/mL). Also, the inhibition result in data set [6] was “Active”. Further, in [7], the hemolysis at 1 h, 4 µM is 2%. Moreover, the selectivity ratio in [8] is 3.8. The inhibition of growth at 2 µM in data set [9] was at most 40%.

Turning to `C[C@H](NC(=O)CNC(=O)[C@H](Cc1ccccc1)NC(=O)[C@]1(C)CCC/C=C\CCC[C@](C)(NC(=O)[C@H](Cc2ccccc2)NC(=O)CNC(=O)[C@H](C)NC(=O)[C@H](CCCCN)NC(=O)[C@H](CCCCN)NC(=O)[C@H](CCCCN)NC(=O)[C@H](CCCCN)NC(=O)[C@H](CCCCN)NC(=O)[C@@H](N)CCCCN)C(=O)N[C@@H](C)C(=O)N[C@@H](Cc2c[nH]c3ccccc23)C(=O)N[C@@H](C)C(=O)N1)C(N)=O` (H-KKKKKKAGF[S5]AWA[S5]FGA-NH2; staple (Z) 10-14), the result in data set [1] and in data set [3] was Active. In data set [2], this compound displayed an MHC of 15 µM. Besides, the inhibition result in [10] is “Active”. For the same compound, the outcome in [4] was inactive. For the same compound, the MIC in data set [5] was 1.6 µM (≈ 3.06 µg/mL). In data set [8], the selectivity ratio was found to be 9.4. In addition, in data set [9], the inhibition of growth at 2 µM was at most 40%.

With `C[C@H](NC(=O)CNC(=O)[C@H](Cc1ccccc1)NC(=O)[C@]1(C)CCC/C=C\CCC[C@](C)(NC(=O)[C@H](Cc2ccccc2)NC(=O)CNC(=O)[C@H](C)NC(=O)[C@H](CCCCN)NC(=O)[C@H](CCCCN)NC(=O)[C@H](CCCCN)NC(=O)[C@H](CCCCN)NC(=O)[C@H](CCCCN)NC(=O)[C@@H](N)CCCCN)C(=O)N[C@@H](C)C(=O)N[C@@H](Cc2c[nH]c3ccccc23)C(=O)NCC(=O)N1)C(N)=O` (H-KKKKKKAGF[S5]AWG[S5]FGA-NH2; staple (Z) 10-14), the result in data set [1] and in data set [3] was Active. The MHC in data set [2] was found to be 128 µM. Besides, the result in data set [4] was inactive. This compound also showed an MIC in data set [5] of 4.2 µM (≈ 7.99 µg/mL). Moreover, the inhibition entry in data set [11] was “Active”. For the same compound, the selectivity ratio in data set [8] was 30.8. Besides, the inhibition of growth at 2 µM in data set [9] is at most 40%.

`C[C@H](NC(=O)CNC(=O)[C@H](Cc1ccccc1)NC(=O)[C@]1(C)CCC/C=C\CCC[C@](C)(NC(=O)[C@H](Cc2ccccc2)NC(=O)CNC(=O)[C@H](CC(N)=O)NC(=O)[C@H](CCCCN)NC(=O)[C@H](CCCCN)NC(=O)[C@H](CCCCN)NC(=O)[C@H](CCCCN)NC(=O)[C@H](CCCCN)NC(=O)[C@@H](N)CCCCN)C(=O)N[C@@H](C)C(=O)N[C@@H](Cc2c[nH]c3ccccc23)C(=O)NCC(=O)N1)C(N)=O` (H-KKKKKKNGF[S5]AWG[S5]FGA-NH2; staple (Z) 10-14): the result in data set [1], in data set [4] and in data set [13] was inactive. In [2], this compound came in with an MHC of 587 µM. For the same compound, the result in [3] and in data set [12] was Active. Also, 4.2 µM (≈ 8.17 µg/mL) was the least that counted as inhibitory in data set [5] (MIC). Besides, the inhibition entry in data set [11] is “Active”. The selectivity ratio in data set [8] is 140. The inhibition of growth at 2 µM in data set [9] is at most 40%.

In the case of H-KKKKKKAAFAAWAAFAA-NH2, the result in data set [1], in data set [3], in [12] and in data set [13] was Active. Also, the MHC in data set [2] is 320 µM. In addition, in [10], the inhibition result was “Active”. In addition, the result in data set [4] was inactive. Besides, 1.6 µM was the least that counted as inhibitory in data set [5] (MIC). Also, the selectivity ratio in [8] is 200. Further, the “growth inhibition (GI)” value in [9] was “Active”.

The term MIC denotes the lowest concentration that inhibits growth of the organism. Read a low MIC as greater potency.
